Experiments:
[1] = system: Mycobacterium tuberculosis; assay: MMV: Screen against Mtb, single point, replicating, at 25uM; format: functional
[2] = system: Mycobacterium tuberculosis; assay: MMV: Screen against Mtb, single point, non replicating, at 25uM; format: functional

Row | SMILES | inhibition at 25 µM [1] | inhibition at 25 µM [2]
1 | COc1ccc(-c2cc3c(nn2)-c2ccccc2C3=O)cc1 | 39% | 26.7%
2 | COc1cccc(Cn2c(Oc3ccccc3)nc3c2c(=O)n(C)c(=O)n3C)c1 | 3.71% | -1.06%
3 | CCOc1ccccc1CN1CCc2nc3cc(C(C)(C)C)nn3c(O)c2C1 | 13.9% | 1.04%
4 | CN1CCN(c2ncnc3c2[nH]c2ccc(Cl)cc23)CC1 | 23.9% | 1.91%
5 | O=C1c2ccccc2-c2nnc(-c3ccc(Br)cc3)cc21 | 9.33% | 1.49%
6 | CN(C)CCNc1cc(-c2ccccc2)nc2ccccc12 | 6.89% | 6.45%
7 | CCOC(=O)C1=C(C)N=c2sc(=Cc3ccccc3O)c(=O)n2C1c1ccc(OC)c2ccccc12 (stereo not drawn) | 4% | 24.4%
8 | CCOC(=O)C1=C(C)N=c2sc(=Cc3cc(Cl)ccc3O)c(=O)n2C1c1ccc(OC)cc1 (stereo not drawn) | -0.235% | 13.4%
9 | COc1ccc(CN2CCCC(C(=O)c3ccc(C(F)(F)F)cc3)C2)c(O)c1 (stereo not drawn) | 35.3% | 1.85%
10 | COc1ccc2nc(C)cc(Nc3cccc(O)c3)c2c1 | 7.96% | 8.19%
11 | CN(C)CCCNCc1ccc(-c2ccc(F)c(Cl)c2)o1 | 23.9% | 1.91%
12 | O=c1nc(C=Cc2ccc(Br)cc2)oc2ccccc12 | 20.6% | -13.3%
13 | COc1ccc2nc(N)nc(C)c2c1 | 5.53% | -10.5%
14 | O=C(NC1CCCCC1)C(c1cccs1)N(CCc1ccccc1)C(=O)c1ccco1 (stereo not drawn) | 22.2% | 2.2%
15 | COc1ccc(C(=O)NC(c2ccc(Cl)cc2Cl)c2cc(Cl)c3cccnc3c2O)cc1 (stereo not drawn) | 3.06% | -4.19%
16 | CCC(=O)Nc1nnc(Cc2ccc(OC)c(OC)c2)s1 | -1.3% | 1.56%
17 | c1ccc2c(NCCCCCCNc3c4c(nc5ccccc35)CCCC4)c3c(nc2c1)CCCC3 | 32.7% | 17.8%
18 | O=C(NCCCN1CCC(N2CCCCC2)CC1)C1=Cc2cc(Br)ccc2OC1 | 14.7% | 6.82%
19 | Cc1ccnc(NC(c2cccc(OCc3ccccc3)c2)c2ccc3cccnc3c2O)c1 (stereo not drawn) | 6.19% | 22.3%
20 | N=c1c2ccccc2nnn1-c1cccc(C(F)(F)F)c1 | 7.29% | -4.19%
21 | COc1cc(-c2nc(-c3ccc(Sc4ccccc4)cc3)c(-c3ccccc3)[nH]2)cc(OC)c1O | 16.5% | 13.6%
22 | O=c1cc(NC2CCN(CCCc3ccccc3)CC2)c2cc(Cl)ccc2o1 | 24.2% | 14.3%
23 | Cc1ccc(OCCCCCCNCCO)c(C)c1 | 17.5% | 13%
24 | COc1cccc(C(=O)Nc2ccc(-c3nc4ccccc4[nH]3)cc2)c1 | 7.2% | 0.862%
25 | OC(Cn1nnc2ccccc21)Cn1c2ccc(Br)cc2c2cc(Br)ccc21 (stereo not drawn) | 4.62% | -5.78%
26 | CCOc1ccc(-n2cc(-c3ccccc3)c3c(SCc4cc(C)ccc4C)ncnc32)cc1 | -0.392% | 21.9%
27 | Cc1ccc(C)c(Cn2c(N3CCC(C(=O)NCc4cccs4)CC3)nc3ccccc32)c1 | 22% | 10.4%

Row | SMILES | inhibition at 25 µM [1] | inhibition at 25 µM [2]
28 | Cc1ccccc1OCCSc1nc2ccc(NC(=O)c3cccs3)cc2s1 | 51.3% | 16.4%
29 | CC1CCN(Cc2c(O)ccc3cc(-c4nc5ccccc5s4)c(=O)oc23)CC1 | 8.23% | 12%
30 | COc1ccc(C2C(C(=O)Nc3cccc(OC)c3)c3ccccc3C(=O)N2C2CCCCC2)cc1 (stereo not drawn) | 19.5% | 29%
31 | CCOC(=O)c1cnc2ccc(Cl)cc2c1NCCCN(C)C | 2.59% | -0.993%
32 | CCOc1ccccc1NC(=O)CN1CCN(C(=O)c2ccco2)CC1 | 23.1% | -0.186%
33 | c1ccc2c(NCCc3c[nH]c4ccccc34)c3ccccc3nc2c1 | 47.1% | 17.8%
34 | O=C(Nc1ccc(C23CC4CC(CC(c5ccccc5)(C4)C2)C3)cc1)c1cccs1 | 9.48% | -0.283%
35 | CCN(CC)CCCNc1ccnc2cc3ccccc3cc12 | 8.7% | 14.6%
36 | O=C1c2ccccc2C2=Nc3ccccc3SC(c3cccc(F)c3)C12 (stereo not drawn) | 7.45% | -5.43%
37 | Cc1ccccc1OCCSc1nc2ccc(NC(=O)c3ccccc3)cc2s1 | 22% | 9.66%
38 | CCOC(=O)c1cnc2c(C)cccc2c1Nc1ccc(C(C)=O)cc1 | 0.392% | 8.24%
39 | O=C(Nc1ccc(-c2nc3cc4ccccc4cc3[nH]2)cc1)c1cccc(Br)c1 | 8.07% | 37%
40 | Cc1ccc(-c2nc3ccccc3o2)cc1NCc1cc(Cc2ccccc2)ccc1O | 1.18% | 10.4%
41 | Cc1ccc(C2CC(C(F)(F)F)n3nc(C(=O)N4CCN(C(c5ccccc5)c5ccccc5)CC4)cc3N2)cc1 (stereo not drawn) | 14.3% | 10.5%
42 | Cc1ccc2nc(C)cc(Nc3cccc(C(F)(F)F)c3)c2c1 | 39% | 10.4%
43 | CC(C)(C)c1ccc(C(=O)Nc2c3c(nn2-c2cccc(Cl)c2)CSC3)cc1 | -1.02% | -4.72%
44 | CCOc1cc2c(cc1OCC)C(c1cc(Cl)c(O)c(OCC)c1)NCC2 (stereo not drawn) | -12.2% | -14%
45 | COc1ccc(N2CCN(C(CNC(=O)CC(C)(C)C)c3ccc4c(c3)OCO4)CC2)cc1 (stereo not drawn) | 0.0784% | -8.45%
46 | COc1cccc(C(=O)NC(c2ccc(C)cc2)c2cc(Cl)c3cccnc3c2O)c1 (stereo not drawn) | 10.4% | 14.3%
47 | COc1ccc(C(O)(CCC(C)C)C(CN2CCOCC2)c2ccc(Cl)cc2)cc1 (stereo not drawn) | 4.78% | 10%
48 | Oc1ccc(Br)cc1CN1CCN(Cc2cccc(F)c2)CC1 | 28.5% | -1.58%
49 | CCOC(=O)C1(Cc2ccccc2)CCN(Cc2cccc(OC)c2O)CC1 | 9.17% | 8.77%
50 | CCCOCc1cc(CN2CCN(c3cccc(Cl)c3)CC2)c(O)c2ncccc12 | 5.25% | 1.85%
51 | CCOc1ccc2c(c1)CN(Cc1ccc(Cl)cc1)CO2 | 16.1% | 20.5%
52 | CC(C)(C)c1ccc2c(c1)CN(Cc1ccc(Cl)cc1)CO2 | 48.4% | 41.2%
53 | CCCCC(O)(c1ccc(Cl)cc1)C(CN1CCOCC1)c1ccc(Cl)cc1 (stereo not drawn) | 17.3% | 15.2%
54 | CN(C)c1ccc(N2C(N)=NC(N)=NC2(C)C)cc1 | 2.64% | 1.21%

Row | SMILES | inhibition at 25 µM [1] | inhibition at 25 µM [2]
55 | COc1ccc(OC)c(C2C3=C(CC(C)(C)CC3=O)N(c3ccc(Cl)c(Cl)c3)C3=C2C(=O)CC(C)(C)C3)c1 | 5.56% | 7.7%
56 | COc1ccc(C(=O)NC(c2ccccc2Cl)c2cc(Cl)c3cccnc3c2O)cc1 (stereo not drawn) | 10.6% | 5.04%
57 | Cc1cc(=O)oc2c1ccc1oc(C(=O)c3ccccc3)c(C)c12 | 13.4% | 21.4%
58 | COc1ccc(CN2CCN(Cc3ccccc3)CC2)c(O)c1 | 0.392% | -5.78%
59 | COc1ccc2c(c1OC)C(=O)N1c3ccccc3N=C(c3ccc(C)cc3)CC21 (stereo not drawn) | 4.94% | 15.2%
60 | Oc1c(CN2CCN(c3ccccc3F)CC2)cc(Br)c2cccnc12 | 21.8% | 30.2%
61 | CCCCCCc1cc(O)c2c3c(c(=O)oc2c1)CCC(C)C3 (stereo not drawn) | 12.8% | 11.4%
62 | CCCc1c(C)nc2ccc(Br)cc2c1O | 13.7% | 12.5%
63 | COc1ccc(CCNC(=O)c2cc(S(=O)(=O)N3CC(C)CC(C)C3)ccc2Sc2ccc(F)cc2)cc1OC (stereo not drawn) | -6.51% | 22.6%
64 | Cc1ccc(F)cc1NC(=O)c1cc(Cl)ccc1Nc1ccccc1 | 6.66% | 28.5%
65 | CCOc1ccc(Nc2c3ccccc3nc3ccccc23)cc1 | 51.8% | 15.9%
66 | CC1=C(CC(=O)c2cccc([N+](=O)[O-])c2)C(=O)c2ccccc2C1=O | 40.5% | 20.1%
67 | OC1CCCCC1C1(NC(=S)Nc2ccccc2)CCCCC1 (stereo not drawn) | 7.76% | 13.9%
68 | OC1=C2C(=Nc3ccccc3SC2c2ccc(Br)cc2)c2ccccc21 (stereo not drawn) | -4.78% | 0.604%
69 | COc1ccc(C)c2sc(N(Cc3cccnc3)C(=O)c3ccc(C#N)cc3)nc12 | 9.48% | 23.9%
70 | CCCCCCc1cc2cc(-c3nc4ccccc4[nH]3)c(=Nc3ccccc3C)oc2cc1O | 4.31% | 28.5%
71 | CCCCCCC(O)(c1ccc(F)cc1)C(CN1CCOCC1)c1ccccc1 (stereo not drawn) | 3.84% | 19.8%
72 | COc1cc(OC)cc(N2C(=O)N(Cc3ccc(C(C)(C)C)cc3)c3ccccc3S2(=O)=O)c1 | 2.59% | 13.6%
73 | CCOc1c(Br)cc(C2C(C(=O)OC)=CN(C)C=C2C(=O)OC)cc1OC | 7.76% | 14.1%
74 | COc1ccc(C(=O)C2CC2c2ccc(Cl)cc2)cc1 (stereo not drawn) | 17.5% | -5.07%
75 | COc1ccccc1N1C(=N)SC(=Cc2ccc(OCc3ccccc3F)cc2)C1=O | 8.86% | 21.4%
76 | CCN1CCN(c2c(C(=O)c3ccccc3)cnc3cc(OC)c(OC)cc23)CC1 | 5.25% | 1.14%
77 | Cc1ccc(S(=O)(=O)c2c(COC(=O)c3cccc(C)c3)c(-c3ccccc3)nn2C)cc1 | 9.01% | 8.24%
78 | CCOC(=O)c1c[nH]c2c(CC)cccc2c1=O | 4.62% | 11.1%
79 | CCCCN(CCCC)S(=O)(=O)c1ccc(NC(=O)c2ccco2)cc1 | 8.56% | 6.97%

From ChEMBL document CHEMBL2094260, “Malaria Box Tuberculosis Screening Data”
